Converted amounts (≈) assume the structure as drawn. Like-named read-outs stand apart in the source and are kept apart here.

What all share (test): microbe, parasite or virus in culture
Format in all cases: cell-based

Assay [1] concerns microorganisms with acquired resistance. The conditions noted are these: for Peptide MIC: in µg/mL.
The test system of assay [2] is inherently resistant microorganisms.
The test system of a further assay is bacterial isolates. The conditions noted are these: combination with Ampicillin.
[3] abbreviates: Staphylococcus aureus, read-out: MIC alone (antibiotic agent), S. aureus.
The mark [4] stands for this setting: Staphylococcus haemolyticus, read-out: MIC alone (antibiotic agent), S. haemolyticus.

For the compound `CC1(C)S[C@@H]2[C@H](NC(=O)[C@H](N)c3ccccc3)C(=O)N2[C@H]1C(=O)O` [Ampicillin], the “MIC comb. (antibiotic agent)” value in assay [1] (S. aureus, with MBI 26) is 0.25 µg/mL (≈ 0.715 µM); in assay [1] (S. haemolyticus, with MBI 26) it was 0.25 µg/mL (≈ 0.715 µM). Further, the MIC in assay [1] (setting [3]) was found to be 2 µg/mL (≈ 5.72 µM).
`CC(C)(O/N=C(\C(=O)N[C@@H]1C(=O)N2C(C(=O)[O-])=C(C[n+]3ccccc3)CS[C@H]12)c1csc(N)n1)C(=O)O` [Ceftazidime]: the “MIC comb. (antibiotic agent)” value in assay [1] (A. calcoaceticus, with MBI 26) was 2 µg/mL (≈ 3.66 µM); in assay [1] (A. calcoaceticus, with MBI 29), 2 µg/mL (≈ 3.66 µM); in assay [1] (P. aeruginosa, with MBI 29), 16 µg/mL (≈ 29.3 µM). Further, the MIC is 32 µg/mL (≈ 58.5 µM) in assay [1] (Acinetobacter calcoaceticus, read-out: MIC alone (antibiotic agent), A. calcoaceticus) and 64 µg/mL (≈ 117 µM) in assay [1] (Pseudomonas aeruginosa, read-out: MIC alone (antibiotic agent), P. aeruginosa).
For the compound `CC[C@H]1OC(=O)[C@H](C)[C@@H](O[C@H]2C[C@@](C)(OC)[C@@H](O)[C@H](C)O2)[C@H](C)[C@@H](O[C@@H]2O[C@H](C)C[C@H](N(C)C)[C@H]2O)[C@](C)(O)C[C@@H](C)C(=O)[C@H](C)[C@@H](O)[C@]1(C)O` [Erythromycin], the MIC in assay [1] (setting [3]) was 8 µg/mL (≈ 10.9 µM); in assay [1] (Staphylococcus epidermidis, read-out: MIC alone (antibiotic agent), S. epidermidis) it was 8 µg/mL (≈ 10.9 µM); in assay [1] (setting [4]) it was 8 µg/mL (≈ 10.9 µM); in assay [2] (Acinetobacter calcoaceticus, read-out: Erythromycin MIC + MBI 26, A. calcoaceticus AC001), 1 µg/mL; in assay [2] (Klebsiella pneumoniae, read-out: Erythromycin MIC + MBI 26, K. pneumoniae KP001) it was 0.25 µg/mL; in assay [2] (Klebsiella pneumoniae, read-out: Erythromycin MIC + MBI 26, K. pneumoniae KP002), 0.5 µg/mL. Moreover, the MIC in assay [2] (Klebsiella pneumoniae, read-out: Erythromycin MIC Alone, K. pneumoniae KP002) was determined as 256 µg/mL (≈ 349 µM); in assay [2] (Pseudomonas aeruginosa, read-out: Erythromycin MIC + MBI 26, P. aeruginosa PA041) it was 4 µg/mL; in assay [2] (Pseudomonas aeruginosa, read-out: Erythromycin MIC Alone, P. aeruginosa PA041), 128 µg/mL (≈ 174 µM).
Consider `COc1cccc(OC)c1C(=O)N[C@@H]1C(=O)N2[C@@H]1SC(C)(C)[C@@H]2C(=O)O` [Methicillin], for which the “MIC comb. (antibiotic agent)” value in assay [1] (S. haemolyticus, with MBI 26) amounted to 0.25 µg/mL (≈ 0.657 µM). Besides, the MIC in assay [1] (setting [4]) was found to be 64 µg/mL (≈ 168 µM).
Regarding GKPRPYSPIPTSPRPIRY [MBI 31], the FIC is 0.52 in the assay with bacterial isolates (S. epidermidis SE8416); 0.27 in the assay with bacterial isolates (S. epidermidis SH8575); 0.50 in the assay with bacterial isolates (S. haemolyticus SA7797); 0.26 in the assay with bacterial isolates (S. haemolyticus SA7817); 0.52 in the assay on bacterial isolates (S. haemolyticus SA7818); 0.52 in the assay with bacterial isolates (S. haemolyticus SA7834). In addition, the FIC with bacterial isolates (S. haemolyticus SA7835) is 0.50; in the assay on bacterial isolates (S. haemolyticus SH8597), 1.00. Besides, the “Peptide MIC” value in assay [1] (S. aureus, combination with Erythromycin) was determined as 0.125.
With KKWWRRVLKGLSSGPALSNV [MBI 21A10], the “Peptide MIC” value in assay [1] (S. aureus, combination with Mupirocin) stood at 32.

The values above are taken from US20020035061A1, “COMPOSITIONS AND METHODS FOR TREATING INFECTIONS USING CATIONIC PEPTIDES ALONE OR IN COMBINATION WITH ANTIBIOTICS” (priority 1996, published 2002).
